Measured values taken from patent US11986493B2 (University of Pittsburgh—Of the Commonwealth System of …, priority 2013, dated 2024).

System: subjects with pulmonary hypertension
Assay: Oxygen saturation by pulse oximeter and methemoglobin by continuous percutaneous co-oximetry
Type: in vivo, human
Protocol: Oxygen saturation measured by pulse oximeter and methemoglobin levels monitored by continuous percutaneous co-oximetry prior to dose administration and through 4 hours post-dose were monitored closely.

[1] = Patient 1, nitrite 45 mg inhaled, 15 min
[2] = Patient 1, nitrite 45 mg inhaled, 30 min
[3] = Patient 1, nitrite 45 mg inhaled, 45 min
[4] = Patient 1, nitrite 45 mg inhaled, 60 min
[5] = Patient 1, nitrite 90 mg inhaled, 15 min
[6] = Patient 1, nitrite 90 mg inhaled, 30 min
[7] = Patient 1, nitrite 90 mg inhaled, 45 min
[8] = Patient 1, nitrite 90 mg inhaled, 60 min
[9] = Patient 2, nitrite 45 mg inhaled, 15 min
[10] = Patient 2, nitrite 45 mg inhaled, 30 min
[11] = Patient 2, nitrite 45 mg inhaled, 45 min
[12] = Patient 2, nitrite 45 mg inhaled, 60 min
[13] = Patient 2, nitrite 90 mg inhaled, 15 min
[14] = Patient 2, nitrite 90 mg inhaled, 30 min
[15] = Patient 2, nitrite 90 mg inhaled, 45 min
[16] = Patient 2, nitrite 90 mg inhaled, 60 min
[17] = Patient 3, nitrite 45 mg inhaled, 15 min
[18] = Patient 3, nitrite 45 mg inhaled, 30 min
[19] = Patient 3, nitrite 45 mg inhaled, 45 min
[20] = Patient 3, nitrite 45 mg inhaled, 60 min
[21] = Patient 3, nitrite 90 mg inhaled, 15 min
[22] = Patient 3, nitrite 90 mg inhaled, 30 min
[23] = Patient 3, nitrite 90 mg inhaled, 45 min
[24] = Patient 3, nitrite 90 mg inhaled, 60 min
[25] = Patient 4, nitrite 45 mg inhaled, 15 min
[26] = Patient 4, nitrite 45 mg inhaled, 30 min
[27] = Patient 4, nitrite 45 mg inhaled, 45 min
[28] = Patient 4, nitrite 45 mg inhaled, 60 min
[29] = Patient 4, nitrite 90 mg inhaled, 15 min
[30] = Patient 4, nitrite 90 mg inhaled, 30 min
[31] = Patient 4, nitrite 90 mg inhaled, 45 min
[32] = Patient 4, nitrite 90 mg inhaled, 60 min
[33] = Patient 5, nitrite 45 mg inhaled, 15 min
[34] = Patient 5, nitrite 45 mg inhaled, 30 min
[35] = Patient 5, nitrite 45 mg inhaled, 45 min
[36] = Patient 5, nitrite 45 mg inhaled, 60 min
[37] = Patient 5, nitrite 90 mg inhaled, 15 min
[38] = Patient 5, nitrite 90 mg inhaled, 30 min
[39] = Patient 5, nitrite 90 mg inhaled, 45 min
[40] = Patient 5, nitrite 90 mg inhaled, 60 min

O=NO [nitrite, sodium nitrite]
Syst O2sat [1]: 95
metHgB [1]: 1.1
Syst O2sat [2]: 100
metHgB [2]: 1.1
Syst O2sat [3]: 92
metHgB [3]: 1.3
Syst O2sat [4]: 92
metHgB [4]: 1.5
Syst O2sat [5]: 95
metHgB [5]: 1.4
Syst O2sat [6]: 94
metHgB [6]: 1.3
Syst O2sat [7]: 94
metHgB [7]: 1.2
Syst O2sat [8]: 94
metHgB [8]: 1.4
Syst O2sat [9]: 98
metHgB [9]: 1
Syst O2sat [10]: 99
metHgB [10]: 1
Syst O2sat [11]: 99
metHgB [11]: 1
Syst O2sat [12]: 99
metHgB [12]: 1
Syst O2sat [13]: 96
metHgB [13]: 1.4
Syst O2sat [14]: 98
metHgB [14]: 1.7
Syst O2sat [15]: 98
metHgB [15]: 1.7
Syst O2sat [16]: 100
metHgB [16]: 1.6
Syst O2sat [17]: 92
metHgB [17]: 1.1
Syst O2sat [18]: 94
metHgB [18]: 1.3
Syst O2sat [19]: 93
metHgB [19]: 1.5
Syst O2sat [20]: 94
metHgB [20]: 1.5
Syst O2sat [21]: 97
metHgB [21]: 1.7
Syst O2sat [22]: 95
metHgB [22]: 1.7
Syst O2sat [23]: 95
metHgB [23]: 1.6
Syst O2sat [24]: 95
metHgB [24]: 1.5
Syst O2sat [25]: 98
metHgB [25]: 1.3
Syst O2sat [26]: 98
metHgB [26]: 1.1
Syst O2sat [27]: 99
metHgB [27]: 1
Syst O2sat [28]: 97
metHgB [28]: 0.8
Syst O2sat [29]: 97
metHgB [29]: 1.7
Syst O2sat [30]: 97
metHgB [30]: 2
Syst O2sat [31]: 96
metHgB [31]: 1.2
Syst O2sat [32]: 96
metHgB [32]: 1.2
Syst O2sat [33]: 94
metHgB [33]: 1.1
Syst O2sat [34]: 98
metHgB [34]: 0.8
Syst O2sat [35]: 97
metHgB [35]: 0.7
Syst O2sat [36]: 94
metHgB [36]: 0.8
Syst O2sat [37]: 95
metHgB [37]: 0.9
Syst O2sat [38]: 97
metHgB [38]: 0.7
Syst O2sat [39]: 98
metHgB [39]: 0.7
Syst O2sat [40]: 97
metHgB [40]: 0.5
Syst O2sat (Patient 6, nitrite 45, 15 min): 95
metHgB (Patient 6, nitrite 45, 15 min): 1.1
Syst O2sat (Patient 6, nitrite 45, 30 min): 99
metHgB (Patient 6, nitrite 45, 30 min): 1.3
Syst O2sat (Patient 6, nitrite 45, 45 min): 96
metHgB (Patient 6, nitrite 45, 45 min): 1.3
Syst O2sat (Patient 6, nitrite 45, 60 min): 96
metHgB (Patient 6, nitrite 45, 60 min): 1.2
Syst O2sat (Patient 6, nitrite 90, 15 min): 95
metHgB (Patient 6, nitrite 90, 15 min): 1.9
Syst O2sat (Patient 6, nitrite 90, 30 min): 95
metHgB (Patient 6, nitrite 90, 30 min): 1.9
Syst O2sat (Patient 6, nitrite 90, 45 min): 96
metHgB (Patient 6, nitrite 90, 45 min): 1.7
Syst O2sat (Patient 6, nitrite 90, 60 min): 95
metHgB (Patient 6, nitrite 90, 60 min): 1.7
methemoglobin (at the doses tested (45 mg and 90 mg inhaled)): does not significantly affect
